Assay results taken from patent US11559545B2, “Inhibition of UCHL1 in high-grade serous ovarian cancer” (The Trustees of Indiana University, priority 2019, dated 2023).

Experiments:
[1] = system: UCHL1; assay: Relative UCHL1 expression (qPCR) after DNA methylase inhibitor treatment in ovarian cancer cells; assay type: cell-based; settings: 200 μM, day 2, HGSOC cell lines with mutant p53, FIG. 7I
Procedure: FIG. 7A depicts relative UCHL1 expression (qPCR) after treatment with DNA methylase inhibitor, 5AzaDC (200 μM, day3) in ovarian cancer cells. The following cell cultures were included in the analysis: HeyA8 (WT p53), SKOV3 (p53 null), OVCAR5 (p53 null), Kuramochi (mutant p53), and OVCAR4 (mutant p53).
FIG. 7H depicts relative UCHL1 expression (qPCR) after treatment with DNA methylase inhibitor, 5AzaDC (200 μM, day 2) in ovarian cancer cells with wild-type p53 (HeyA8 and A2780), ovarian cancer cells with p53-null mutations (OVCAR5 and SKOV3) and normal fallopian tube cells with wild-type p53 (FTE282).
FIG. 7I illustrates that no change in UCHL1 levels were detected with treatment with DNA methylase inhibitor 5AzaDC (200 μM, day 2) in HGSOC cell lines with mutant p53.

[2] = system: HGSOC primary and metastatic tumors; assay: Transgenic TKO mouse model of HGSOC: growth and progression of primary and metastatic tumors after UCHL1 inhibition; assay type: in vivo
Description: Triple mutant (TKO) mice are Pten and Dicer knockout and overexpress mutant p53 R172H (corresponding to human R175H mutant) (Pten−/− Dicer−/− and p53-R172H). These mice spontaneously developed primary tumors in the fallopian tube at age 4 months, which metastasize to other organs by 5-6 months. This model recapitulates metastatic tumor growth as in ovarian cancer patients. […] The tumors are circled using a dotted line and/or indicated with arrows.
FIGS. 11B and 11C illustrate the reduction in primary HGSOC tumor size with LDN treatment in mice aged 4-6 months.

[3] = system: PSMA7; assay: PSMA7 RNA and protein levels in treated TKO mice; assay type: in vivo, mouse; settings: treated TKO mice vs untreated TKO control, FIG. 12E
[4] = system: UCHL1; settings: cited from earlier work
[5] = system: Proteasome; assay: Proteasome activity in treated TKO mice; assay type: in vivo, mouse; settings: treated TKO mice vs TKO CTL mice, FIG. 12E

In the case of `Nc1ncn([C@H]2C[C@H](O)[C@@H](CO)O2)c(=O)n1` [5AzaDC], the UCHL1 levels [1] is reported as “no change”.

In the case of `CC(=O)O/N=C1\C(=O)N(Cc2cc(Cl)ccc2Cl)c2ccc(Cl)cc21` [LDN-57444], the primary tumor ([2]; TKO mice (Pten-/- Dicer-/- p53-R172H) vs TKO control, FIG. 11A) is reported as “visible reduction”, the “metastatic tumors in the omentum, diaphragm, mesentery, and peritoneal wall” value ([2]; TKO mice vs TKO control, FIG. 11A) is reported as “absence” and the “primary HGSOC tumor size” value ([2]; mice aged 4-6 months, FIGS. 11B and 11C) is reported as “reduction”. The “PSMA7 RNA levels” value [3] was “reduced”, the PSMA7 protein levels [3] was “reduced” and the “mode of UCHL1 inhibition” value [4] was “competitive, reversible, active site-directed inhibitor”. For the same compound, the Proteasome activity [5] was “significantly reduced”.
